# According to paper PMC6884535, “Detection of colonic neoplasia in vivo using near-infrared-labeled peptide targeting cMet” (Scientific Reports, 2019):
# Where a SMILES comes first, the peptide text is derived from it. Where no end group is shown, it is not given here. The star is where a group is joined. X1 = CN1/C(=C/C=C/C=C/C2=[N+](CCCCCC(=O)*)c3ccc4ccccc4c3C2(C)C)C(C)(C)c2c1ccc1ccccc21
# B1: QQT*-Cy5.5 (peptide)
# peptide: QQTNWSLGGGSK-{Cy5.5}
# modifications: not fully specified
# notes: heptapeptide selected by phage display (Ph.D.-7 library) against the extra-cellular domain of cMet; linker between the peptide and Cy5.5; also called QQTNWSL; cMet peptide; source: synthetic peptide (Fmoc solid-phase synthesis, purified with HPLC)
# Columns and labels:
# [1] = system: CCD841 cells; assay: Alamar blue growth assay, CCD841 cells; format: cell-based, human; details: 48 hours, 37 °C; HGF 25 ng/mL or QQT*-Cy5.5 5 or 100 μM; 3 independent experiments
# Description: (§1) An alamar blue assay was performed using HT29 and CCD841 cells. After culturing in serum free media overnight, ~3 × 10^3 cells were seeded per well in serum free media in 96 well plates at a final volume of 100 µL per well. […] Alamar blue reagent (10 µL) was added in amounts equal to 10% of the volume in the well, and incubated at 37 °C for 4 hours. Fluorescence with excitation at λex = 530–560 nm, and emission at λex = 590 nm was measured.
# [2] = system: vascular endothelial growth factor A (VEGFA); details: IRDye800-labeled, intravenous, n = 17 FAP patients, cited from earlier work
# Description: Large molecules, such as antibodies, that have high target affinity are also being utilized for CRC imaging. Bevacizumab is a monoclonal antibody that has been repurposed for imaging by labeling with IRDye800 to detect overexpressed vascular endothelial growth factor A (VEGFA)[46]. This imaging agent was intravenously administered in a total of n = 17 patients with familial adenomatous polyposis (FAP), and n = 51 adenomas were detected. A median T/B ratio = 1.84 was achieved using a dose of 25 mg. Small adenomas with dimensions< 3 mm were detected. Antibodies have long circulation times that l ...
# [3] = system: p-AKT; assay: Western blot of p-AKT in HT29 cells; format: cell-based, human; details: HT29, serum-starved; HGF 25 ng/mL or QQT*-Cy5.5 5 or 100 μM; 10, 30, 120 min
# Description: (§2) Peptides are added at concentrations of 5 and 100 μM for 10, 30, and 120 min. Anti-cMet antibody (#8198, Cell Signaling), phospho-cMet (Tyr1234/1235) antibody (#3077, Cell Signaling), anti-AKT (#4691, Cell Signaling), anti-phospho-AKT (#9271, Cell Signaling), anti-ERK1/2 (#ab17942, Abcam,), anti-phospho-ERK1/2 (#ab50011, Abcam), and anti-tubulin (#32-2600, Invitrogen) were used per manufacturer’s instructions.
# [4] = system: HT29 cells; assay: Alamar blue growth assay, HT29 cells; format: cell-based, human; details: 48 hours, 37 °C; HGF 25 ng/mL or QQT*-Cy5.5 5 or 100 μM; 3 independent experiments
# Description: as §1
# [5] = system: p-ERK1/2; assay: Western blot of p-ERK1/2 in HT29 cells; format: cell-based, human; details: HT29, serum-starved; HGF 25 ng/mL or QQT*-Cy5.5 5 or 100 μM; 10, 30, 120 min
# Description: as §2
# [6] = system: p-cMet; assay: Western blot of p-cMet in HT29 cells; format: cell-based, human; details: HT29, serum-starved; HGF 25 ng/mL or QQT*-Cy5.5 5 or 100 μM; 10, 30, 120 min
# Description: as §2
# [7] = molecular target: T1, cMet (Homo sapiens, UniProt P08581); assay: Competition of unlabeled peptide for QQT*-Cy5.5 binding to HT29 cells; details: unlabeled peptide 0, 25, 50, 100, 200 and 400 μM, then 5 μM Cy5.5-labeled peptide, 3 replicate slides, 5 cells per slide
# T1 construct: endogenous in cells; host or cells: HT29 human colorectal cancer cells (ATCC)
# Description: Unlabeled peptides at 0, 25, 50, 100, 200 and 400 μM were first added and then incubated with 5 μM of Cy5.5-labeled peptides. […] The cells were fixed with 4% PFA, and mounted with ProLong Gold reagent containing DAPI.
# [8] = system: mouse cMet-ECD; assay: Pull-down assay with mouse cMet-ECD; format: binding; details: peptide immobilized on EHS beads; Western blot; by comparison with TLQ*
# Description: Interactions between peptide and mouse cMet were evaluated using a pull-down assay. Peptides were immobilized on EHS active beads (17-0906-01, GE), and incubated with purified mouse cMet-ECD protein (50622-M08H, Sino Biological). After washing, bound proteins were detected by Western blot.
# [9] = system: cMet; assay: In vivo fluorescence endoscopy of colonic adenomas in CPC;Apc mice; set-up: species or system mouse; details: intra-rectal 100 μM, 1.5 mL, control peptide 3 days later
# Description: CPC;Apc mice were used for in vivo imaging. This mouse was genetically engineered to sporadically delete an adenomatous polyposis coli (APC) allele under control of a Cdx2 promoter (CDX2P-9.5NLS-Cre) to spontaneously form either flat or polypoid adenomas in the distal colon. Prior to imaging, the mice were fasted for 4–6 hours. Anesthesia was induced and maintained via a nose cone with inhaled isoflurane mixed with oxygen at concentrations of 2–4% at a flow rate of 0.5 L/min. A rigid small animal endoscope (Karl Storz Veterinary Endoscopy) was inserted into the rectum. White-light illumination was used first to identify the presence of adenomas. Peptides (100 μM, 1.5 mL) were delivered intra-rectally through the instrument channel. After 5 min for incubation, the colon was rinsed with warm tap water 3X to remove stool and debris prior to image collection. After 3 days for the signal from the target peptide to clear, the same mice were imaged using the control peptide. A ratio of the fluorescence and reflectance images was determined to correct for differences in distance and geometry over the image field-of-view (FOV)[33]. […] The mean fluorescence intensity was used to calculate the target-to-background (T/B) ratios. Images were processed and analyzed using custom software in Matlab (Mathworks)[34].
# [10] = molecular target: T1, cMet; assay: Confocal microscopy of binding to HT29 (cMet+) versus SW480 (cMet-) CRC cells
# Description: (§3) The cells were blocked with 1X PBS plus 2% BSA for 1 hour at 4 °C, and were incubated with 5 μM of peptide for 10 min at room temperature (RT) in the dark, washed 3×, and fixed with 4% PFA for 5 min, washed with 1X PBS, and then mounted on glass slides with ProLong Gold reagent containing DAPI (Invitrogen). A 1:3000 dilution of primary monoclonal rabbit anti-cMet antibody (#8198, Cell Signaling Technology) was incubated with the cells in vitro as a positive control. Afterwards, the cells were incubated with a 1:500 dilution of AF488-labeled secondary goat ant-rabbit immunoglobulin G antibody (#A-11029, Life Technologies), and then mounted on glass slides with ProLong Gold reagent containing DAPI. Confocal fluorescence images were collected using a 63X oil-immersion objective (Leica SP5 Inverted 2-Photon FLIM confocal). Fluorescence intensities were quantified using custom Matlab software (Mathworks).
# [11] = molecular target: T1, cMet; assay: Confocal microscopy of binding to HT29 cells with siRNA knockdown of cMet
# Description: as §3
# Expression of cMet by HT29 cells was knocked down using siRNA (siRNA1, SASI_Hs01_00133002, Sigma). MISSION® siRNA Universal Negative Control (SIC001, Sigma) was used for control. Cells were transfected with Lipofectamine 2000 (11668027, Invitrogen) per manufacturer instructions, and incubated with 5 μM of peptide for 5 min. A 1:3000 dilution of primary monoclonal rabbit anti-cMet antibody (Cell Signaling Technology, #8198) was used for positive control.
# [12] = system: cMet; assay: Confocal microscopy of binding to S114 (cMet+) versus NIH3T3 (cMet-) cells; set-up: species or system mouse
# Description: Human HT29, SW480, CCD841 colorectal cancer cells and mouse NIH 3T3 embryonic fibroblast cells were obtained from the ATCC. S114 cells (NIH 3T3 cells transformed to express cMet) were provided by courtesy of G Vande Woude (Van Andel Institute). McCoy’s 5A Medium (Gibco) was used for HT29 cells. Dulbecco’s Modified Eagle Medium (Gibco) were used for SW480, NIH3T3, and S114 cells. Eagle’s Minimum Essential Medium (Lonza) was used for CCD841. All cells were cultured at 37 °C in 5% CO2, and supplemented with 10% fetal bovine serum. Reagents for peptide synthesis were obtained from Anaspec (Anaspec) and AAPPTEC (AAPPTEC) at the highest available grade (>99% purity), and were used without further purification. Solvents and other chemical reagents were purchased (Sigma-Aldrich) unless stated otherwise.
# as §3
# [13] = molecular target: T2, cMet on human HT29 CRC cells (human (endogenous in HT29), UniProt P08581 25-1390); assay: immunostaining of cells or tissue; confocal fluorescence microscopy of cells incubated with 5 μM Cy5.5-labeled peptide (5-10 min, RT), washed, fixed with 4% PFA; HT29 transfected with siCL or sicMet; HT29 versus SW480; S114 versus NIH3T3; details: one partner purified
# T2 construct: cMet, transmembrane tyrosine kinase receptor (hepatocyte growth factor receptor), human; Alpha and beta chains are cut from one precursor; written as one chain; also called HT29 cells (cMet+); source: endogenous, on HT29 cells
# [14] = molecular target: T2, cMet on human HT29 CRC cells; assay: flow cytometry on cells; HT29 cells incubated with peptide at 0-200 nM for 1 hour at 4 °C; apparent dissociation constant by nonlinear regression; details: one partner purified
# [15] = 6 replicate slides per condition, 10 cells per slide
# T1 sequence (P08581 25-1390): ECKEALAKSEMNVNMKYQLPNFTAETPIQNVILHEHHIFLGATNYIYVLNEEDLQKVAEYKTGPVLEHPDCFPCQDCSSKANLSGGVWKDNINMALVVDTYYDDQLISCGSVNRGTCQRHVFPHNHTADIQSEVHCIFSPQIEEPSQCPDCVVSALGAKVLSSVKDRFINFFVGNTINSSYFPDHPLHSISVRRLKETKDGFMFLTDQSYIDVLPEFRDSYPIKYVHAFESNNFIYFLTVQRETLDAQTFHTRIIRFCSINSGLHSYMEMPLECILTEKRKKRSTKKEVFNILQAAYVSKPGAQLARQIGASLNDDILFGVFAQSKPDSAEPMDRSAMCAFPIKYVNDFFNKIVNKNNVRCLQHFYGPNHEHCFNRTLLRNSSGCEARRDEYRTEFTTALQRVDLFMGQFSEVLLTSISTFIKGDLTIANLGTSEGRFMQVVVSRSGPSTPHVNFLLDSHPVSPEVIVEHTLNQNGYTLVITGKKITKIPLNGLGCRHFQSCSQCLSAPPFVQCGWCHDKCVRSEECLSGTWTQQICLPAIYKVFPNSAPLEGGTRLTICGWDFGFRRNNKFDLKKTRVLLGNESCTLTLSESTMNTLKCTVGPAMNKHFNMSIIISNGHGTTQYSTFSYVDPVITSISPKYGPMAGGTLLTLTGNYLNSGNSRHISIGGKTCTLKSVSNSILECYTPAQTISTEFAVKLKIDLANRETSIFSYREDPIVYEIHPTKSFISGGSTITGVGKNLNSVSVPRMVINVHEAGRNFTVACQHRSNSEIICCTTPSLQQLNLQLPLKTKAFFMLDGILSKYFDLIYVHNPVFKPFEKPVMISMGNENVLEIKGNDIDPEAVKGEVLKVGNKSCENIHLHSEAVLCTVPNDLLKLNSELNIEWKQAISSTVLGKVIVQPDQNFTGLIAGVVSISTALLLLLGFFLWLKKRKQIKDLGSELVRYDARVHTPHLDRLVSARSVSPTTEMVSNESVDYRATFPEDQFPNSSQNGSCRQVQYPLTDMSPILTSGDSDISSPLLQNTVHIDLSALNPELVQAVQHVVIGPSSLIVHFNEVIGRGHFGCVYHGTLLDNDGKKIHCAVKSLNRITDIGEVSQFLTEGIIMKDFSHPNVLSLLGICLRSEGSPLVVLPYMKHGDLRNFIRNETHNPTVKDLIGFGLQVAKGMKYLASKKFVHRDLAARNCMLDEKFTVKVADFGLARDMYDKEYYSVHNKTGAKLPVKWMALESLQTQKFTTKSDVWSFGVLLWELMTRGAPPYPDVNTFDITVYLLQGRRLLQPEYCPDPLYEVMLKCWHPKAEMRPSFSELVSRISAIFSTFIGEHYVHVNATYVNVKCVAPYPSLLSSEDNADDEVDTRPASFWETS
# T2 sequence (P08581 25-1390): as above
molecule,measurement,setting,value
CC(C)C[C@H](NC(=O)[C@H](CO)NC(=O)[C@H](Cc1c[nH]c2ccccc12)NC(=O)[C@H](CC(N)=O)NC(=O)[C@@H](NC(=O)[C@H](CCC(N)=O)NC(=O)[C@@H](N)CCC(N)=O)[C@@H](C)O)C(=O)NCC(=O)NCC(=O)NCC(=O)N[C@@H](CO)C(=O)N[C@@H](CCCCNC(=O)CCCCC[N+]1=C(/C=C/C=C/C=C2/N(C)c3ccc4ccccc4c3C2(C)C)C(C)(C)c2c1ccc1ccccc21)C(N)=O [QQT*-Cy5.5] (H-QQTNWSLGGGSK(X1)-NH2),Growth of CCD841 normal colon cells,[1],no effect on growth
Bevacizumab: monoclonal antibody repurposed for imaging by labeling with IRDye800 to detect overexpressed VEGFA,Median T/B ratio,[2]; 25 mg,1.84
same,Dimensions of small adenomas detected,[2],< 3 mm
same,Number of adenomas detected,[2],51
"HGF: recombinant human hepatocyte growth factor (HGF, 294-HG-005, R&D), a known ligand for cMet",Growth of CCD841 normal colon cells,[1],not (C) CCD841 cells
same,Phosphorylation of downstream AKT (p-AKT),[3],strong phosphorylation activity
same,Growth of HT29 cells,[4],increased growth
same,Phosphorylation of downstream ERK1/2 (p-ERK1/2),[5],strong phosphorylation activity
same,Phosphorylation of cMet (p-cMet),[6],strong phosphorylation activity
QQTNWSL [QQT*],Competition: fluorescence intensity of QQT*-Cy5.5 binding with increasing unlabeled peptide,[7],decreased significantly
same,Pull-down band for binding to mouse cMet-ECD,[8],strong band
"TLQWNQS [TLQ*, unlabeled control peptide TLQ*]",Competition: fluorescence intensity of QQT*-Cy5.5 binding with increasing unlabeled peptide,[7],not with TLQ*
TLQWNQS [TLQ*-Cy5.5],Fluorescence from representative polyp,[9],minimal signal
same,Fluorescence from representative flat lesion,[9]; same lesion,minimal signal
same,"Change in mean intensity, HT29 versus SW480 (in words)",[10]; [15],non-significant decrease
same,Binding to surface of HT29 cells (cMet+),"[10]; HT29, confocal, peptide 5 μM 10 min RT, antibody 1:3000",minimal binding
same,Binding to SW480 cells (cMet-),"[10]; SW480, confocal, peptide 5 μM 10 min RT, antibody 1:3000",minimal binding
same,"Change in fluorescence intensity, siCL versus sicMet (in words)","[11]; HT29, ANOVA on log-transformed data, 6 replicate slides per condition",non-significant decrease
same,Binding to surface of HT29 cells transfected with siCL (control),"[11]; HT29 siCL, peptide 5 μM, antibody 1:3000, confocal fluorescence",minimal binding
same,Binding to HT29 cells transfected with sicMet (cMet knockdown),"[11]; HT29 sicMet, peptide 5 μM, 5 min, antibody 1:3000, confocal fluorescence",little binding
same,"Change in mean intensity, S114 versus NIH3T3 (in words)",[12]; [15],non-significant increase
same,Binding to NIH3T3 cells (cMet-),"[12]; NIH3T3, confocal, peptide 5 μM 10 min RT, antibody 1:3000",nominal binding
same,Binding to surface of S114 cells (cMet+),"[12]; S114, confocal, peptide 5 μM 10 min RT, antibody 1:3000",minimal binding
B1,fold change of fluorescence intensity against TLQ*-Cy5.5,[13],8.1 fold
same,"fold change of fluorescence intensity, siCL versus sicMet transfected cells",[13],2.9 fold
same,Kd,[14],57 nM
